The record followed here is US9649314B2, “Pyrimido[4,5-b]quinoline-4,5(3H,10H)-diones” (NOVARTIS AG, priority 2012, dated 2017).

For orientation: AC50 means the midpoint of the concentration-response curve, whichever way the signal moves. A high value points to weaker potency.

This experiment deals with CFTR-Y122X. The experiment can be described thus: CFTR-Y122X assay (dual reporter isogenic Hek293 cell lines, Renilla luminescence readthrough). It is filed as cell-based. The following applies: Homo sapiens, HEK293; for Emax / AC50: nonsense mutation suppression, 24 h incubation; for Emax: 100% = 14 mM paromomycin, tested up to 100 μM, read-out: Amax [%]. An excerpt: Activity of compounds of the present invention was examined in recombinant, dual reporter isogenic Hek293 cell lines (“CFTR-Y122X assay”). The engineered reporter constructs contained the 18 bp sequence stretch corresponding to a common Y122X PTC mutation in CFTR class I mutant patients (see Sermet-Gaudelus, BMC Medicine, 2007, 5(5)). Instead of a tyrosine (Y) in position 122 of the CFTR protein a TGA stop codon interrupts the open reading frame (Y122X) of the corresponding mRNA. This TGA stop codon triplet (followed by the pyrimidine base cytosine) is permissive to aminoglycoside mediated translational readthrough which served as positive control for high throughput screening. A corresponding TAA stop codon variant and a wildtype non mutated construct was used for confirmation and counter screening. The CFTR sequence was sandwiched between an eGFP reporter, and a triple myc tag sequence fused to a full length Renilla reporter. All sequences, including an intron containing one positioned pre-eGFP (b-globin intron) were cloned in frame. The corresponding expression constructs were stably expressed in the isogenic HEK-R4 cell host (Invitrogen Incorp.) and selected by blasticidin resistance. The isogenic integration of the construct minimizes gene dose effects and improves assay reproducibility. Stably integrated single cell derived clones were selected and characterized for aminoglycoside mediated readthrough. […] Readthrough of Y122X accumulates an intracellular localized fusion protein approximately 65.5 kDa in size as controlled by western blot analysis and immunofluorescence using an anti-renilla antibody. The eGFP reporter pre-PTC mutation serves as visual control for genetic stability of the screening clones and minimizes protein degradation of small fusion protein amounts. In the assay, compound concentration was 10 μM. In miniaturized 1536 well format 2000 cells were dispensed in 4 μl/well and incubated for 24 h at 37° C., 5% CO2. 40 nl compounds were placed on the cells with control wells containing 1 ul Paramomycin and 14.4 mM final concentration. Compounds were incubated for 24 h. Renilla Glo substrate (2.5 ul) was added and plates were centrifuged and processed for luminescence measurement using various readers. Activity calculation was done using the equation: A1 (%)=100*(S−NC)/(AC−NC) where AC, NC and S correspond to active controls (injection of Stimulation buffer=100% stimulation), neutral controls (buffer injection which Iloprost EC10) and screening samples (S). NC corresponds to 0% activity whereas AC is 100% activity (14 mM paromomycin). False positive artefacts were removed in confirmation and validation screening using the same assay format followed by counterscreening using the respective wildtype construct (w/o PTC mutation) cell model. Compounds were tested up to 100 μM compound concentration.

Turning to `Cn1c2ccccc2c(=O)c2c(=O)n(-c3ccccc3)c(C3CC3)nc21` [Example 1.11, 2-cyclopropyl-10-methyl-3-phenylpyrimido[4,5-b]quinoline-4,5(3H,10H)-dione], the Emax amounted to 188% and the activity was half-maximal at 9.1 µM (AC50).
As to `CCCCc1nc2c(c(=O)c3ccccc3n2C)c(=O)n1-c1ccccc1` [Example 1.12, 2-butyl-10-methyl-3-phenylpyrimido[4,5-b]quinoline-4,5(3H,10H)-dione], the Emax came out at 391% and the half-maximal activity concentration (AC50) was 4.8 µM.
Take `COCCCc1nc2c(c(=O)c3ccccc3n2C)c(=O)n1-c1ccccc1` [Example 1.13, 2-(3-methoxypropyl)-10-methyl-3-phenylpyrimido[4,5-b]quinoline-4,5(3H,10H)-dione]: the Emax came to 13%.
As to `COCCCCc1nc2c(c(=O)c3ccccc3n2C)c(=O)n1-c1ccccc1` [Example 1.14, 2-(4-methoxybutyl)-10-methyl-3-phenylpyrimido[4,5-b]quinoline-4,5(3H,10H)-dione], the Emax was determined as 18%.
For `CC(C)c1nc2c(c(=O)c3ccccc3n2C)c(=O)n1-c1ccccc1F` [Example 1.15, 3-(2-fluorophenyl)-2-isopropyl-10-methylpyrimido[4,5-b]quinoline-4,5(3H,10H)-dione], the Emax was found to be 169% and the activity was half-maximal at 7.8 µM (AC50).
As to `CC(C)c1nc2c(c(=O)c3ccccc3n2C)c(=O)n1-c1ccccc1Cl` [Example 1.16, 3-(2-chlorophenyl)-2-isopropyl-10-methylpyrimido[4,5-b]quinoline-4,5(3H,10H)-dione], the Emax was 200% and the activity was half-maximal at 9.3 µM (AC50).
For the compound `CC(C)c1nc2c(c(=O)c3ccccc3n2C)c(=O)n1-c1c(Cl)cccc1Cl` [Example 1.17, 3-(2,6-dichlorophenyl)-2-isopropyl-10-methylpyrimido[4,5-b]quinoline-4,5(3H,10H)-dione], the Emax stood at 230% and the AC50 amounted to 8.8 µM.
In the case of `Cc1ccccc1-n1c(C(C)C)nc2c(c(=O)c3ccccc3n2C)c1=O` [Example 1.18, 2-isopropyl-10-methyl-3-(o-tolyl)pyrimido[4,5-b]quinoline-4,5(3H,10H)-dione], the Emax was 248% and the activity was half-maximal at 6.9 µM (AC50).
As for `COc1ccccc1-n1c(C(C)C)nc2c(c(=O)c3ccccc3n2C)c1=O` [Example 1.19, 2-isopropyl-3-(2-methoxyphenyl)-10-methylpyrimido[4,5-b]quinoline-4,5(3H,10H)-dione], the Emax at 12.5 µM (measured at 12.5 μM compound concentration (footnote b), read-out: Amax [%]: % nonsense mutation suppression relative to paromomycin reference activity) was determined as 16%.
For the compound `CC(C)c1nc2c(c(=O)c3ccccc3n2C)c(=O)n1-c1ccccc1C(F)(F)F` [Example 1.20, 2-isopropyl-10-methyl-3-(2-(trifluoromethyl)phenyl)pyrimido[4,5-b]quinoline-4,5(3H,10H)-dione], the Emax is 65% and the activity was half-maximal at 13.8 µM (AC50).
For the compound `CC(C)c1nc2c(c(=O)c3ccccc3n2C)c(=O)n1-c1cccc(Cl)c1` [Example 1.21, 3-(3-chlorophenyl)-2-isopropyl-10-methylpyrimido[4,5-b]quinoline-4,5(3H,10H)-dione], the Emax stood at 167% and the activity was half-maximal at 10.2 µM (AC50).
For `COc1cccc(-n2c(C(C)C)nc3c(c(=O)c4ccccc4n3C)c2=O)c1` [Example 1.22, 2-isopropyl-3-(3-methoxyphenyl)-10-methylpyrimido[4,5-b]quinoline-4,5(3H,10H)-dione], the Emax amounted to 23% and half-maximal activity (AC50) was put at 1.9 µM.
With `CC(C)c1nc2c(c(=O)c3cc(F)ccc3n2C)c(=O)n1-c1ccccc1` [Example 1.23, 7-fluoro-2-isopropyl-10-methyl-3-phenylpyrimido[4,5-b]quinoline-4,5(3H,10H)-dione], the Emax worked out at 139% and the AC50 stood at 13.4 µM.
On the same counts, the results for `CC(C)c1nc2c(c(=O)c3cc(Cl)ccc3n2C)c(=O)n1-c1ccccc1` [Example 1.24, 7-chloro-2-isopropyl-10-methyl-3-phenylpyrimido[4,5-b]quinoline-4,5(3H,10H)-dione] are 140% and 11.5 µM.
For `CC(C)c1nc2c(c(=O)c3cc(Br)ccc3n2C)c(=O)n1-c1ccccc1` [Example 1.25, 7-bromo-2-isopropyl-10-methyl-3-phenylpyrimido[4,5-b]quinoline-4,5(3H,10H)-dione], the Emax came to 68% and the AC50 is 19.5 µM.
Consider `Cc1ccc2c(c1)c(=O)c1c(=O)n(-c3ccccc3)c(C(C)C)nc1n2C` [Example 1.26, 2-isopropyl-7,10-dimethyl-3-phenylpyrimido[4,5-b]quinoline-4,5(3H,10H)-dione], for which the Emax amounted to 254% and the half-maximal activity concentration (AC50) is 9.6 µM.
For the compound `CC(C)c1nc2c(c(=O)c3cccc4c3n2CC4)c(=O)n1-c1ccccc1` [Example 1.27, 9-isopropyl-8-phenyl-1H-pyrimido[4,5-b]pyrrolo[3,2,1-ij]quinoline-6,7(2H,8H)-dione], the Emax amounted to 271% and the AC50 came out at 6.8 µM.
Consider `CC(C)c1nc2c(c(=O)c3ccccc3n2C)c(=O)n1-c1ccccc1` [Example 1.28, 2-isopropyl-10-methyl-3-phenylpyrimido[4,5-b]quinoline-4,5(3H,10H)-dione], for which the Emax came out at 361% and the concentration at half-maximal activity (AC50) worked out at 7.6 µM.
For the compound `CCCCCc1nc2c(c(=O)c3ccccc3n2C)c(=O)n1-c1ccccc1` [Example 1.29, 10-methyl-2-pentyl-3-phenylpyrimido[4,5-b]quinoline-4,5(3H,10H)-dione], the Emax was found to be 336% and the activity was half-maximal at 7.1 µM (AC50).
For the compound `CCCc1nc2c(c(=O)c3ccccc3n2C)c(=O)n1-c1ccccc1` [Example 1.30, 10-methyl-3-phenyl-2-propylpyrimido[4,5-b]quinoline-4,5(3H,10H)-dione], the Emax came to 262% and half-maximal activity (AC50) was put at 6.5 µM.
The matching figures for `CCc1nc2c(c(=O)c3ccccc3n2C)c(=O)n1-c1ccccc1` [Example 1.31, 2-ethyl-10-methyl-3-phenylpyrimido[4,5-b]quinoline-4,5(3H,10H)-dione]: 177% and 10.6 µM.
On to `Cn1c2ccccc2c(=O)c2c(=O)n(-c3ccccc3)c(C3CCCCC3)nc21` [Example 1.32, 2-cyclohexyl-10-methyl-3-phenylpyrimido[4,5-b]quinoline-4,5(3H,10H)-dione], for which the Emax stood at 38%.
As to `CCc1nc2c(c(=O)c3ccccc3n2C)c(=O)n1-c1cc(C)cc(C)c1` [Example 1.33, 3-(3,5-dimethylphenyl)-2-ethyl-10-methylpyrimido[4,5-b]quinoline-4,5(3H,10H)-dione], the Emax is 16% and half-maximal activity (AC50) was put at 0.7 µM.
For the compound `CCCCCc1nc2c(c(=O)c3ccccc3n2C)c(=O)n1-c1cc(C)cc(C)c1` [Example 1.34, 3-(3,5-dimethylphenyl)-10-methyl-2-pentylpyrimido[4,5-b]quinoline-4,5(3H,10H)-dione], the Emax amounted to 16% and the half-maximal activity concentration (AC50) is 3.2 µM.
Take `Cc1cc(C)cc(-n2c(C(C)C)nc3c(c(=O)c4ccccc4n3C)c2=O)c1` [Example 1.35, 3-(3,5-dimethylphenyl)-2-isopropyl-10-methylpyrimido[4,5-b]quinoline-4,5(3H,10H)-dione]: the Emax was 13% and the AC50 came out at 1.5 µM.
Turning to `CCCc1nc2c(c(=O)c3ccccc3n2C)c(=O)n1-c1cc(C)cc(C)c1` [Example 1.36, 3-(3,5-dimethylphenyl)-10-methyl-2-propylpyrimido[4,5-b]quinoline-4,5(3H,10H)-dione], the Emax is 9% and the concentration at half-maximal activity (AC50) came out at 1 µM.
